{"source": "patent US20030138394A1", "about": "“Cosmetic and/or pharmaceutical preparations that contain an extract of the plant argania spinosa” (priority 2000, published 2003)", "test_system": "human adipocytes", "test": "Lipolysis activity on human adipocytes (released glycerol)", "type": "cell-based", "conditions": "30 mM; 90 minutes at 37° C.; reference medium = 0", "experimental": "Method: The adipocytes were isolated from human subcutaneous tissue, as corresponds to the general technique in accordance with Rodbell. The extract as in\nExample 1 or the comparison substances are dissolved in the reference medium and then brought into contact with the isolated adipocytes for 90 minutes at 37° C. In each case one adipocyte preparations [sic] was analyzed. The percentage increase in released glycerol in the supernatant of the medium was determined by means of spectrophotometry in accordance with the method by Carpéné et al. The reference administered was the medium without substance to be analyzed and was set equal to 0.", "data": [{"smiles": "Cn1c(=O)c2c(ncn2C)n(C)c1=O", "note": "[Caffeine]", "values": [{"measurement": "% increase in released glycerol", "result": 181, "unit": "%"}]}]}
